Measured values as given in ChEMBL document CHEMBL1201862, “PubChem BioAssay data set” (2004).
The source made the active and inactive calls.

What was measured:
ORF 73 = biological target: T1, ORF 73 (Human herpesvirus 8, UniProt O40947); assay: KSHV LANA DNA-binding disruption – biochemical, fluorescence polarization, cherry-picked samples, dose response (AID 504725); parameters: species or system Human gammaherpesvirus 8;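 also: fluorescence polarization of a labeled DNA duplex reporting LANA DNA binding; potency is for inhibitors that block LANA binding to the DNA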
T1 sequence (O40947 whole entry): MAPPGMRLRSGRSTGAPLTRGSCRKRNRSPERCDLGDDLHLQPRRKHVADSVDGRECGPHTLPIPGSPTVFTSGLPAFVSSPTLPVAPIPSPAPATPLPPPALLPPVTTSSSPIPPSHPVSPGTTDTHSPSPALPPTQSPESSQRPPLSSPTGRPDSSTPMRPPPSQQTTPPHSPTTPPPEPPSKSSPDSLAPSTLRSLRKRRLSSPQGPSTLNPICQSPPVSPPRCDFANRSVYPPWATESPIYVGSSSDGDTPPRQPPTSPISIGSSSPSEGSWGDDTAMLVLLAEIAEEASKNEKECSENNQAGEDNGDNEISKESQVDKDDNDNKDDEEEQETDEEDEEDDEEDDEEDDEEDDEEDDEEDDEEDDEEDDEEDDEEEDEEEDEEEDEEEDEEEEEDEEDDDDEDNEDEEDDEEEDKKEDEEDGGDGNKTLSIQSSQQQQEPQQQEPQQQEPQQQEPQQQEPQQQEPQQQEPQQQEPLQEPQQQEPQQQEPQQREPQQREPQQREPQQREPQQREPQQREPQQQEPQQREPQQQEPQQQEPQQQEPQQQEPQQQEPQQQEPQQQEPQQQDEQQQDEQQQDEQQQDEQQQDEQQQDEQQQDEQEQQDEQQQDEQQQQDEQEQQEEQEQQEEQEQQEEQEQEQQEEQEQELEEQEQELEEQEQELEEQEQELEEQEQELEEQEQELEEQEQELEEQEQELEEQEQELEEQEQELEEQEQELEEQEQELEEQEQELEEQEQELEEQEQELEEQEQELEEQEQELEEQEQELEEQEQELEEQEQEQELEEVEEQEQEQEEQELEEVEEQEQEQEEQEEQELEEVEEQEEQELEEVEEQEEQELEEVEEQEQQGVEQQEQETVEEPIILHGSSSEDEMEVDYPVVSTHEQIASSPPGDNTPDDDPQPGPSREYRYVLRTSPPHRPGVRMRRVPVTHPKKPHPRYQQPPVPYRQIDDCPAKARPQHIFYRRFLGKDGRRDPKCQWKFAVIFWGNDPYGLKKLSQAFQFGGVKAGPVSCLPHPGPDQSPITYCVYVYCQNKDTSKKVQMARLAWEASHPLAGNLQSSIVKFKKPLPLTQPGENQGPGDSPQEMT

[1] = biological target: T2, Corticotropin-releasing factor receptor 2/Corticotropin-releasing factor-binding protein (Homo sapiens, UniProt P24387+Q13324); assay: activators of CRF receptor 2 with binding protein – uHTS hits, confirmation (AID 602473); type: functional; details: read-out: EC50_Mean
T2 sequence (Q13324 whole entry): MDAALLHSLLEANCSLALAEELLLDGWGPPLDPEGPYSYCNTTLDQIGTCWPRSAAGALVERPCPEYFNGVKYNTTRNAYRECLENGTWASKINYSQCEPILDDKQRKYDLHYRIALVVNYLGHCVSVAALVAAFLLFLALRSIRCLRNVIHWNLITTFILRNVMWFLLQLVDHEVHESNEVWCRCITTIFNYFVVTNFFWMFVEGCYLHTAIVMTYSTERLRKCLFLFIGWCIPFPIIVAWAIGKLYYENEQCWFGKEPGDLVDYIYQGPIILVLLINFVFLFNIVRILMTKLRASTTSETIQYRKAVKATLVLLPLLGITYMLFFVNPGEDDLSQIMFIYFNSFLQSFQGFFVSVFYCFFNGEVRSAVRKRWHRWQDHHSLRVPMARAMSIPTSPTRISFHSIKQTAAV
T2 sequence (P24387 whole entry): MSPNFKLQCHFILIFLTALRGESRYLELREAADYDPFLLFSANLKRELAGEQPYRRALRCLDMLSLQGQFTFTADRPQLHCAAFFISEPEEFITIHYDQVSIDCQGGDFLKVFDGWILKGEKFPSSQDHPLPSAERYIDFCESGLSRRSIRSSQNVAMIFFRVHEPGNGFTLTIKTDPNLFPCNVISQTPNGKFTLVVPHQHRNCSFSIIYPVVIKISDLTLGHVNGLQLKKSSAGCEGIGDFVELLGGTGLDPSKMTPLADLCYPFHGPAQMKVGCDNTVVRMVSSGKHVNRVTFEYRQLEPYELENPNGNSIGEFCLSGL

Keap1/Nrf2 = Keap1/Nrf2 (Homo sapiens, UniProt Q14145); assay: disruptors of Keap1 binding to Nrf2 peptide – biochemical, fluorescence polarization, cherry-picked samples, dose response (AID 588683)
HEK293 = assay: HEK293T cell viability loss, resazurin readout – resazurin fluorescence, cytotoxicity control for NF-kB activator project, SAR follow-up (AID 493251); type: functional, cell-based; details: Homo sapiens
Hexokinase-1 = biological target: T3, Hexokinase-1 (Homo sapiens, UniProt P19367); assay: SAR analysis of small molecule inhibitors of hexokinase domain containing I (HKDC1) in the hexokinase 1 selectivity assay. [Related pubchem assays (depositor defined):AID493160, AID493190]; type: functional
T3 sequence (P19367 whole entry): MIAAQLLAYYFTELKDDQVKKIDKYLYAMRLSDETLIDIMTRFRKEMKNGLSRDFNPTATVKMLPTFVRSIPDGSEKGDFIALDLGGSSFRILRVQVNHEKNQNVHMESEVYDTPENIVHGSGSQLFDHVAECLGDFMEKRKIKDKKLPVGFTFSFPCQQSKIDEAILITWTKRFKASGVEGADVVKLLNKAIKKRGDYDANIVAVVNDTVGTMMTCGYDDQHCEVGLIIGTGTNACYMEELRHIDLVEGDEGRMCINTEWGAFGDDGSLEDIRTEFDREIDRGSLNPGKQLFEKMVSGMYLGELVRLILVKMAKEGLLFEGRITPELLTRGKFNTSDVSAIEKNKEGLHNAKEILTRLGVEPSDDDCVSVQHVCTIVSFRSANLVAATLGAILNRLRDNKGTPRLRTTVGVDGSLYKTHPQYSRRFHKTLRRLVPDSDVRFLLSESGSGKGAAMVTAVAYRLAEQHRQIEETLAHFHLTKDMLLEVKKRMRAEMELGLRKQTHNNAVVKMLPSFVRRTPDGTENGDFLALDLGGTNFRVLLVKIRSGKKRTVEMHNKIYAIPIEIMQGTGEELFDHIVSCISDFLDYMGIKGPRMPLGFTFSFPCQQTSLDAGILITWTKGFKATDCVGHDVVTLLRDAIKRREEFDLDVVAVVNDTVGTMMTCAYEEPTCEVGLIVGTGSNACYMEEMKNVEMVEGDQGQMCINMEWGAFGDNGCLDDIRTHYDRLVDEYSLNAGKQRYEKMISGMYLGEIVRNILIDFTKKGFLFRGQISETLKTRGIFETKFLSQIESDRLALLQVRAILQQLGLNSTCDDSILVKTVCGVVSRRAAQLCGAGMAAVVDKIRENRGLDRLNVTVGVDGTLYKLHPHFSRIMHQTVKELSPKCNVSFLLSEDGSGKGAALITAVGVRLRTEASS

Hexokinase HKDC1 = biological target: T4, Hexokinase HKDC1 (Homo sapiens, UniProt Q2TB90); assay: SAR analysis of small molecule inhibitors of hexokinase domain containing I (HKDC1). [Related pubchem assays (depositor defined):AID493160, AID493190]; type: functional
T4 sequence (Q2TB90 whole entry): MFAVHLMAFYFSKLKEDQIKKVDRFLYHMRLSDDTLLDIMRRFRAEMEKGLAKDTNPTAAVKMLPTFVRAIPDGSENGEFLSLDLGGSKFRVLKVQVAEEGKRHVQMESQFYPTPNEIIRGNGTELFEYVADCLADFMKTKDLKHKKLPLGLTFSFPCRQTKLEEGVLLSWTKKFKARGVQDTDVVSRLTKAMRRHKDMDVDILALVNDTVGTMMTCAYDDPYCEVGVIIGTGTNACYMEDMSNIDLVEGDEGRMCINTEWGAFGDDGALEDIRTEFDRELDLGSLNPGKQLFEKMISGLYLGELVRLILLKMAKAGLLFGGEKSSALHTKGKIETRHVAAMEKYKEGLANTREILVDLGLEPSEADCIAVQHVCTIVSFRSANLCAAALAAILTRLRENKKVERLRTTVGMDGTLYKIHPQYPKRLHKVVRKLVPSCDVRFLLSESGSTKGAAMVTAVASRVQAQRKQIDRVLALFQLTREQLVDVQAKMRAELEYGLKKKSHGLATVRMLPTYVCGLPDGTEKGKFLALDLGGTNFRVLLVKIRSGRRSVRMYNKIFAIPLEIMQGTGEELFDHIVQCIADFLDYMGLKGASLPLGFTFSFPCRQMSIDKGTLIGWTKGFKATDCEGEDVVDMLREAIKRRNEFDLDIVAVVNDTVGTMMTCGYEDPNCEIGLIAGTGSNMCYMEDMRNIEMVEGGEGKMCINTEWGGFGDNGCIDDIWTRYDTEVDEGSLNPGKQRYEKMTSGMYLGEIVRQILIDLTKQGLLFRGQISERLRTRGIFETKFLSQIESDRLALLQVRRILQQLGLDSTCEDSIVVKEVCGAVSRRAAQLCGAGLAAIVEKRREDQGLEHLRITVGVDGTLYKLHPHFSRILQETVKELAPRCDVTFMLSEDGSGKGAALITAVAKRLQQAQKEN

Keap1/Nrf2, sequence (Q16236 whole entry): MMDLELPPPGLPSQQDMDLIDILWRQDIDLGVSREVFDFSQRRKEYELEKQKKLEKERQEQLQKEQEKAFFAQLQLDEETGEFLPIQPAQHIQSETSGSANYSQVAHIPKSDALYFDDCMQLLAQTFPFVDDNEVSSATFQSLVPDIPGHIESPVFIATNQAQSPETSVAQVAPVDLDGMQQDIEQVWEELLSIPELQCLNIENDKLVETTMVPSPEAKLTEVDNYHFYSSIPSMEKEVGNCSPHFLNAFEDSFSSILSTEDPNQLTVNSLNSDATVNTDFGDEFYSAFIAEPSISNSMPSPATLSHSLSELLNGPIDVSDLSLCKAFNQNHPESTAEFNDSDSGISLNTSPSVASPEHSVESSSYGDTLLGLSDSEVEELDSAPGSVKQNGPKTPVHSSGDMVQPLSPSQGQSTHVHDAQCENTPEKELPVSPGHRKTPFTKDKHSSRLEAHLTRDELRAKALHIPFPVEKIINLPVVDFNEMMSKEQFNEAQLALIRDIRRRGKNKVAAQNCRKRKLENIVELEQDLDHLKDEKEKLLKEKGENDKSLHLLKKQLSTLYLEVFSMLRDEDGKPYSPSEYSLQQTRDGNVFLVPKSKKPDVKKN
Keap1/Nrf2, sequence (Q14145 whole entry): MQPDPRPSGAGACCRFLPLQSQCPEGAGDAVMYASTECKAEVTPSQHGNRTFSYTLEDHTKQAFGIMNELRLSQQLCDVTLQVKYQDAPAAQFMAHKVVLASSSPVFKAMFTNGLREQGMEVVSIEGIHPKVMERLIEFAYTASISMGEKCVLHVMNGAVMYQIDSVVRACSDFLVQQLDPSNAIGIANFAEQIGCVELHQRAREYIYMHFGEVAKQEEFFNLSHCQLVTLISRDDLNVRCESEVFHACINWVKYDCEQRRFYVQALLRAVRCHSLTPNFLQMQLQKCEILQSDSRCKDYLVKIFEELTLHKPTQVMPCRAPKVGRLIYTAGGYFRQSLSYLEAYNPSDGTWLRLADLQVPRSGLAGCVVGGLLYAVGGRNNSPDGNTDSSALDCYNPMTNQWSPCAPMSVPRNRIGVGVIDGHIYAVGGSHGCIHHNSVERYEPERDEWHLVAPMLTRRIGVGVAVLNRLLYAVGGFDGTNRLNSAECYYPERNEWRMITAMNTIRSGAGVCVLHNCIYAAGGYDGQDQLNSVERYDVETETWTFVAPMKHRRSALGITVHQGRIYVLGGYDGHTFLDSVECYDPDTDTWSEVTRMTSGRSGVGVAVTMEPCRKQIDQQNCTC

CCC1(c2ccccc2)NC(=O)N(CC(=O)Nc2ccc(OC)nc2)C1=O (stereo not given)
AC50 (ORF 73): 8.04 µM (active) | EC50 [1]: 18.6 µM (active) | AC50 (Keap1/Nrf2): 5.31 µM (active)

Cc1cc[n+](-c2[n-]c(=O)sc2/C=N/NC(=O)c2ccccc2)cc1C
AC50 (ORF 73): 13.3 µM (active) | AC50 (Keap1/Nrf2): 11.8 µM (active)

CCNC(=O)CCc1nc(-c2ccccc2)no1
IC50 (HEK293): > 80 µM (inactive)

O=c1c2ccccc2nc(/C=C/c2ccc(O)cc2)n1Cc1ccccc1
IC50 (Hexokinase-1): > 80 µM (inactive) | IC50 (Hexokinase HKDC1): > 80 µM (inactive)

Cc1cc2nnc(SCC(=O)Nc3cccc(S(=O)(=O)N4CCCCC4)c3)n2c2ccccc12
IC50 (Hexokinase-1): > 80 µM (inactive) | IC50 (Hexokinase HKDC1): > 80 µM (inactive)
